From patent US5914336A, “Method of controlling the serum solubility of orally administered torasemide and composition relating thereto” (Boehringer Mannheim GmbH, priority 1998, dated 1999)
Values after ≈ are worked out from the molar mass of the structure shown. Values joined by “and” are separate entries in the source; they are usually repeats but may differ in a detail not shown here. Equal entries are not always repeated. “Also recorded” adds a separate entry of the source. Where two headings read alike, the source gives them in different places.

Key:
[1] = test system: sodium-potassium-2 chloride transport mechanism in the ascending limb of the loop of Henle; conditions: loop diuretic; cited from earlier work
[2] = in vivo; cited from earlier work
[3] = Dissolution testing of capsules containing 150 mg torasemide in water; assay type: physicochemical; conditions: for % dissolved: 500 ml, 37° C., 150 rpm, 150 mg capsule
Procedure: FIG. 4 is a plot similar to that of FIG. 3, but in water rather than citrate buffer; FIG. 6 is a plot similar to that of FIG. 5, but in water. In this and the following examples, microfine torasemide of modification I and microfine torasemide of modification III were blended together. A blend was prepared of 75 wt. % of modification III and 25 wt. % of modification I, and a similar blend was prepared of 25 wt. % of modification III and 75 wt. % of modification I. These blends were incorporated into capsules containing 150 mg of total torasemide, and pure modification I and pure modification III 150 mg. capsules were also prepared. The capsules were subjected to dissolution testing in water, and in a citrate buffer (pH 4.5), at 37° C. under stirring.

[4] = Solubility at 20° C. at pH 4.90; assay type: physicochemical
Procedure: Solubility (mmol L^-1) at 20° C. at pH 4.90

[5] = Heats of fusion, transition and solution of crystal forms; assay type: physicochemical; conditions: for Heat of fusion ± 95%-c.i.: heating rate 5K min^-1; for Heat of solution: in I-butanol at 20° C.
[6] = Dissolution testing of capsules containing 150 mg torasemide in citrate buffer (pH 4.5); assay type: physicochemical; conditions: for % dissolved: citrate buffer pH 4.5, 500 ml, 37° C., 150 rpm, 150 mg capsule; for 8 hr solubility, %: citrate, pH 4.5, 8 hr
Procedure: A blend was prepared of 75 wt. % of modification III and 25 wt. % of modification I, and a similar blend was prepared of 25 wt. % of modification III and 75 wt. % of modification I. These blends were incorporated into capsules containing 150 mg of total torasemide, and pure modification I and pure modification III 150 mg. capsules were also prepared. The capsules were subjected to dissolution testing in water, and in a citrate buffer (pH 4.5), at 37° C. under stirring.

[7] = Stability / rearrangement of crystal modification; assay type: physicochemical
[8] = Water content after storing in relative humidity of 92% at 25° C.; assay type: physicochemical; conditions: 92% relative humidity, Mod. III value depending on particle size
Procedure: |Water content (%) after storing in relative humidity |of 92% at 25° C. on particle size

[9] = Solubility of modification III versus modification I above pH 3; assay type: physicochemical; conditions: above pH 3 and especially at a pH of approximately 7.4
[10] = Serum concentration of torasemide after oral administration to rats; assay type: in vivo, rat; conditions: male rats (FIG. 1)
Text: FIG. 1 is a plot of serum concentration levels in male rats of torasemide of modification I and modification III versus time after oral administration;
FIG. 2 is similar to FIG. 1, but reflects the serum concentrations in female rats;

[11] = earlier patents/knowledge, storage of pure active material or in tablets, cited from earlier work

Structure (SMILES)	% dissolved ([3]; 0 minutes)	% dissolved ([3]; 15 minutes)	% dissolved ([3]; 30 minutes)	% dissolved ([3]; 45 minutes)	% dissolved ([3]; 60 minutes)	% dissolved ([3]; 120 minutes)	% dissolved ([3]; 180 minutes)	% dissolved ([3]; 240 minutes)	% dissolved ([3]; 300 minutes)	% dissolved ([3]; 480 minutes)	Solubility [4]	Heat of fusion ± 95%-c.i. [5]	Heat of solution [5]	% dissolved ([6]; 0 minutes)	% dissolved ([6]; 15 minutes)	% dissolved ([6]; 30 minutes)	% dissolved ([6]; 45 minutes)	% dissolved ([6]; 60 minutes)	% dissolved ([6]; 120 minutes)	% dissolved ([6]; 180 minutes)	other results
Cc1cccc(Nc2ccncc2S(=O)(=O)NC(=O)NC(C)C)c1 [Torasemide, 1-isopropyl-3-[(4-m-toluidino-3pyridyl)-sulphonyl)-urea]	–	–	–	–	–	–	–	–	–	–	–	–	–	–	–	–	–	–	–	–	mechanism of action [1]: blocks the sodium-potassium-2 chloride transport mechanism in the ascending limb of the loop of Henle; diuresis compared with other standard loop diuretics [2]: less intense initial diuresis and a sustained duration of action
Cc1cccc(Nc2ccncc2S(=O)(=O)NC(=O)NC(C)C)c1 [Mod. III, 1-isopropyl-3-[(4-m-toluidino-3pyridyl)-sulphonyl)-urea]	0%	62,8%	96,6%	100,4%	101,3%	102,1%	102,5%	102,8%	102,2% and 103,2%	103,3%	0.93 mmol/L (≈ 324 µg/mL)	29.9 ± 0.9 kJ/mol	29.8 kJ/mol	0%	63,3%	91%	97,4%	99,5%	101%	101,5%	8 hr solubility, % ([3]; listed as Modification III): 103.3%; Heat of transition ± 95%-c.i. ([5]; at about 159° C., the difference of the heats of fusion): -8.2 ± 2.1 kJ/mol; % dissolved ([6]; 240 minutes): 101,6%; % dissolved ([6]; 300 minutes): 101,8%; % dissolved ([6]; 480 minutes): 102,5%; 8 hr solubility, % ([6]; listed as Modification III): 102.5%; stability of modification [7]: stable; Water content after storing in relative humidity of 92% at 25° C. [8]: 1.2%; solubility versus modification I [9]: significantly greater solubility than modification I; serum concentration relative to modification I ([10]; 20 minutes after oral administration): more than twice the serum concentration as modification I; serum concentration relative to modification I ([10]; 40 minutes after oral administration): almost twice the serum concentration as modification I
Cc1cccc(Nc2ccncc2S(=O)(=O)NC(=O)NC(C)C)c1 [Modification II, 1-isopropyl-3-[(4-m-toluidino-3pyridyl)-sulphonyl)-urea]	–	–	–	–	–	–	–	–	–	–	–	–	–	–	–	–	–	–	–	–	stability / rearrangement of modification [11]: relatively unstable; also recorded: in the case of storage of the pure active material, does not change; also recorded: rearranges more or less quickly into modification I
Cc1cccc(Nc2ccncc2S(=O)(=O)NC(=O)NC(C)C)c1 [Mod. I, 1-isopropyl-3-[(4-m-toluidino-3pyridyl)-sulphonyl)-urea]	0%	30,6%	51,3%	58,5%	61,6%	64,9%	65,9%	66,3%	66,8%	67,3%	0.34 mmol/L (≈ 118 µg/mL)	37.2 ± 1.9 kJ/mol	36.1 kJ/mol	0%	13,4%	30,3%	38,3%	43,5%	54,9%	61%	8 hr solubility, % ([3]; listed as Modification I): 67.3%; % dissolved ([6]; 240 minutes): 63,2%; % dissolved ([6]; 300 minutes): 63,1%; % dissolved ([6]; 480 minutes): 63,9%; 8 hr solubility, % ([6]; listed as Modification I): 63.9%; Water content after storing in relative humidity of 92% at 25° C. [8]: 0.2%; stability / rearrangement of modification ([11]; listed as modification I): stable in tablets and did not rearrange again back into modification II
